Where two headings read alike, the source gives them in different places.
Key:
Assay type in all cases: in vivo
[1] = tested on: oat, wild (wild oat, Avena fatua); test: Test C greenhouse herbicide test, postemergence
How it was run: (§1)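 Steps: pot plants in peat-based medium; spray postemergence at 1- to 4-leaf stage; hold in greenhouse 13 to 15 d; score visually against controls from 0 (no effect) to 100 (complete control).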

kochia (Kochia scoparia) [2] = test: Test C greenhouse herbicide test, postemergence
How it was run: as §1

[3] = tested on: wheat (Triticum aestivum); test: Test A greenhouse herbicide test, pre- and postemergence; settings: Triticum aestivum, post-emergence, 240 h, Postemergence; for plant injury at 125 g/ha: 125 g ai/ha, visual rating after approx. 10 d, 0 to 100 scale (0 no effect, 100 complete control), read-out: Plant response rating, Wheat; for plant injury at 500 g/ha: 500 g ai/ha, 0 to 100 scale, 0 is no effect, 100 is complete control, read-out: Wheat plant response rating
How it was run: (§2)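 Seeds in loam–sand blend received a preemergence directed soil spray; plants at 2–10 cm, one- to two-leaf stage, received postemergence sprays. Compounds in a non-phytotoxic solvent with surfactant. After about 10 d in a greenhouse, injury rated visually versus untreated controls on a 0–100 scale (100 = complete control).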

[4] = tested on: barnyardgrass (Echinochloa crus-galli); test: as above; settings: Echinochloa crus-galli, 240 h; for pest or weed control at 125 g/ha: 125 g ai/ha; for pest or weed control at 500 g/ha: 500 g ai/ha, 0 to 100 scale
How it was run: as §2

corn (Zea mays) = test: as above; settings: Zea mays, post-emergence, 240 h, Postemergence; for Corn plant response rating (crop injury, 0 = no effect, 100 = complete kill) at 125 g/ha: 125 g ai/ha, visual rating after approx. 10 d, 0 to 100 scale (0 no effect, 100 complete control); for plant injury at 500 g/ha: 500 g ai/ha, 0 to 100 scale, 0 is no effect, 100 is complete control, read-out: Corn plant response rating
How it was run: as §2

[5] = tested on: pigweed (Amaranthus retroflexus); test: as above; settings: Amaranthus retroflexus, 240 h; for pest or weed control at 125 g/ha: 125 g ai/ha; for pest or weed control at 500 g/ha: 500 g ai/ha, 0 to 100 scale
How it was run: as §2

kochia (Kochia scoparia) [6] = test: as above; settings: Bassia scoparia, 240 h; for pest or weed control at 125 g/ha: 125 g ai/ha; for pest or weed control at 500 g/ha: 500 g ai/ha, 0 to 100 scale
How it was run: as §2

[7] = tested on: ragweed (common ragweed, Ambrosia elatior); test: as above; settings: Ambrosia artemisiifolia, 240 h; for pest or weed control at 125 g/ha: 125 g ai/ha; for pest or weed control at 500 g/ha: 500 g ai/ha, 0 to 100 scale
How it was run: as §2

[8] = tested on: galium (catchweed bedstraw, Galium aparine); test: Test A greenhouse herbicide test, postemergence; settings: Galium, post-emergence, 240 h; for pest or weed control at 125 g/ha: 125 g ai/ha, visual rating after approx. 10 d, 0 to 100 scale (0 no effect, 100 complete control), read-out: Plant response rating, Galium; for pest or weed control at 500 g/ha: 500 g ai/ha, 0 to 100 scale, 0 is no effect, 100 is complete control, read-out: Galium plant response rating
How it was run: (§3)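 Visual injury score, 0 (no effect) to 100 (complete control), versus untreated controls roughly 10 d after postemergence spray; plants at one- to two-leaf stage, 2 to 10 cm tall, in loam soil and sand, kept in greenhouse.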

[9] = tested on: blackgrass (Alopecurus myosuroides); test: Test A greenhouse herbicide test, postemergence; settings: Alopecurus myosuroides, post-emergence, 240 h; for pest or weed control at 125 g/ha: 125 g ai/ha, visual rating after approx. 10 d, 0 to 100 scale (0 no effect, 100 complete control), read-out: Plant response rating, Blackgrass; for pest or weed control at 500 g/ha: 500 g ai/ha, 0 to 100 scale, 0 is no effect, 100 is complete control, read-out: Blackgrass plant response rating
How it was run: as §3

[10] = tested on: oilseed rape (Brassica napus); test: Test C greenhouse herbicide test, pre- and postemergence
How it was run: (§4)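 Visual ratings on a 0 to 100 scale (0 = no effect, 100 = complete control) versus untreated controls, scored 13–15 d after treatment. Soil-applied preemergence to seeded loam/sand; foliar postemergence to 1- to 4-leaf plants (2–18 cm) in peat-vermiculite mix; compounds formulated in solvent plus surfactant.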

[11] = tested on: crabgrass, large (large crabgrass, Digitaria sanguinalis); test: as above
How it was run: as §4

[12] = Postemergence, 31 g ai/ha, 0 to 100 scale (0 no effect, 100 complete control)
[13] = Postemergence, 125 g ai/ha, scale 0 to 100, 0 is no effect, 100 is complete control
[14] = Postemergence, 250 g ai/ha, scale 0 to 100, 0 no effect, 100 complete control, 13 to 15 d
[15] = postemergence, 62 g ai/ha, scale 0 to 100, 0 no effect, 100 complete control
[16] = post-emergence, Postemergence, visual rating after approx. 10 d, 0 to 100 scale (0 no effect, 100 complete control), read-out: Plant response rating, Barnyardgrass
[17] = post-emergence, Postemergence, 0 is no effect, 100 is complete control, read-out: Barnyardgrass plant response rating
[18] = pre-emergence, Preemergence, 0 to 100 scale where 0 is no effect and 100 is complete control, read-out: Barnyardgrass plant response rating
[19] = pre-emergence, Preemergence, 0 no effect, 100 complete control, read-out: Plant response rating, Barnyardgrass
[20] = post-emergence, Postemergence, visual rating after approx. 10 d, 0 to 100 scale (0 no effect, 100 complete control), read-out: Plant response rating, Pigweed
[21] = post-emergence, Postemergence, 0 is no effect, 100 is complete control, read-out: Pigweed plant response rating
[22] = pre-emergence, Preemergence, 0 to 100 scale where 0 is no effect and 100 is complete control, read-out: Pigweed plant response rating
[23] = pre-emergence, Preemergence, 0 no effect, 100 complete control, read-out: Plant response rating, Pigweed
[24] = post-emergence, Postemergence, visual rating after approx. 10 d, 0 to 100 scale (0 no effect, 100 complete control), read-out: Plant response rating, Kochia
[25] = post-emergence, Postemergence, 0 is no effect, 100 is complete control, read-out: Kochia plant response rating
[26] = pre-emergence, Preemergence, 0 to 100 scale where 0 is no effect and 100 is complete control, read-out: Kochia plant response rating
[27] = pre-emergence, Preemergence, 0 no effect, 100 complete control, read-out: Plant response rating, Kochia
[28] = post-emergence, Postemergence, visual rating after approx. 10 d, 0 to 100 scale (0 no effect, 100 complete control), read-out: Plant response rating, Ragweed
[29] = post-emergence, Postemergence, 0 is no effect, 100 is complete control, read-out: Ragweed plant response rating
[30] = pre-emergence, Preemergence, 0 to 100 scale where 0 is no effect and 100 is complete control, read-out: Ragweed plant response rating
[31] = pre-emergence, Preemergence, 0 no effect, 100 complete control, read-out: Plant response rating, Ragweed

Structure (SMILES) | Oat, Wild plant response rating [1, 12] | Plant response rating, Oat, Wild [1, 13] | Plant response rating, Oat, Wild [1, 14] | Oat, Wild plant response rating [1, 15] | Kochia plant response rating (kochia (Kochia scoparia) [2]; [12]) | Plant response rating, Kochia (kochia (Kochia scoparia) [2]; [13]) | Plant response rating, Kochia (kochia (Kochia scoparia) [2]; [14]) | Kochia plant response rating (kochia (Kochia scoparia) [2]; [15]) | plant injury at 125 g/ha [3] [%] | plant injury at 500 g/ha [3] [%] | pest or weed control at 125 g/ha [4, 16] [%] | pest or weed control at 500 g/ha [4, 17] [%] | pest or weed control at 125 g/ha [4, 18] [%] | pest or weed control at 500 g/ha [4, 19] [%] | Corn plant response rating (crop injury, 0 = no effect, 100 = complete kill) at 125 g/ha (corn (Zea mays)) [%] | plant injury at 500 g/ha (corn (Zea mays)) [%] | pest or weed control at 125 g/ha [5, 20] [%] | pest or weed control at 500 g/ha [5, 21] [%] | pest or weed control at 125 g/ha [5, 22] [%] | pest or weed control at 500 g/ha [5, 23] [%] | also measured
CC(=O)Oc1c(C)nn(C)c(=O)c1-c1c(C)oc2ccc(C)cc12 [Compound 14, 5-(acetyloxy)-4-(2,5-dimethyl-3-benzofuranyl)-2,6-dimethyl-3(2H)-pyridazinone] | 10 | 40 | 45 | 30 | 85 | 90 | 90 | 85 | 0 | 0 | 10 | 70 | 0 | 40 | 0 | 20 | 60 | 80 | 70 | 90 | pest or weed control at 125 g/ha (kochia (Kochia scoparia) [6]; [24]): 80%; pest or weed control at 500 g/ha (kochia (Kochia scoparia) [6]; [25]): 90%; pest or weed control at 125 g/ha (kochia (Kochia scoparia) [6]; [26]): 10%; pest or weed control at 500 g/ha (kochia (Kochia scoparia) [6]; [27]): 50%; pest or weed control at 125 g/ha [7, 28]: 70%; pest or weed control at 500 g/ha [7, 29]: 90%; pest or weed control at 125 g/ha [7, 30]: 0%; pest or weed control at 500 g/ha [7, 31]: 30%; pest or weed control at 125 g/ha [8]: 80%; pest or weed control at 500 g/ha [8]: 90%; pest or weed control at 125 g/ha [9]: 20%; pest or weed control at 500 g/ha [9]: 30%; Oilseed Rape plant response rating [10, 12]: 0; Plant response rating, Oilseed Rape [10, 13]: 0; Plant response rating, Oilseed Rape [10, 14]: 0; Oilseed Rape plant response rating [10, 15]: 0; Crabgrass, Large plant response rating [11, 12]: 5; Plant response rating, Crabgrass, Large [11, 13]: 30; Plant response rating, Crabgrass, Large [11, 14]: 35; Crabgrass, Large plant response rating [11, 15]: 5
CC(=O)Oc1c(C)nn(C)c(=O)c1-c1c(C)oc2c(C)cc(C)cc12 [Compound 16, 5-(acetyloxy)-2,6-dimethyl-4-(2,5,7-trimethyl-3-benzofuranyl)-3(2H)-pyridazinone] | 5 | 10 | 40 | 5 | 0 | 20 | 25 | 0 | 0 | 0 | 20 | 90 | 10 | 70 | 0 | 0 | 30 | 40 | 0 | 70 | pest or weed control at 125 g/ha (kochia (Kochia scoparia) [6]; [24]): 50%; pest or weed control at 500 g/ha (kochia (Kochia scoparia) [6]; [25]): 60%; pest or weed control at 125 g/ha (kochia (Kochia scoparia) [6]; [26]): 0%; pest or weed control at 500 g/ha (kochia (Kochia scoparia) [6]; [27]): 30%; pest or weed control at 125 g/ha [7, 28]: 30%; pest or weed control at 500 g/ha [7, 29]: 70%; pest or weed control at 125 g/ha [7, 30]: 0%; pest or weed control at 500 g/ha [7, 31]: 0%; pest or weed control at 125 g/ha [8]: 90%; pest or weed control at 500 g/ha [8]: 100%; pest or weed control at 125 g/ha [9]: 10%; pest or weed control at 500 g/ha [9]: 30%; Oilseed Rape plant response rating [10, 12]: 0; Plant response rating, Oilseed Rape [10, 13]: 10; Plant response rating, Oilseed Rape [10, 14]: 0; Oilseed Rape plant response rating [10, 15]: 0; Crabgrass, Large plant response rating [11, 12]: 5; Plant response rating, Crabgrass, Large [11, 13]: 20; Plant response rating, Crabgrass, Large [11, 14]: 30; Crabgrass, Large plant response rating [11, 15]: 20

Source: US10597388B2, “Pyridazinone herbicides” (FMC CORPORATION, priority 2014, dated 2020)
